In paper PMC2728841, “The Crystal Structure of the Escherichia coli Autoinducer-2 Processing Protein LsrF” (PLoS ONE, 2009):

Target: T1, LsrF (Escherichia coli, UniProt P76143)
T1 construct: His6-MBP fusion (pDEST-HisMBP) made in E. coli BL21, tag cut with TEV protease; decamer; model lacks residues 1-9, 177-180, 290-291
Test: X-ray crystallography, crystal soak, […] Å
Assay type: binding
Conditions: 100 mM ligand soak, 5 min, 100 mM Tris pH 8.0, 100 mM MgCl2, 27.5% PEG 400; aldolase active site; non-covalent model

T1 sequence (P76143 whole entry, the tested form may be a part): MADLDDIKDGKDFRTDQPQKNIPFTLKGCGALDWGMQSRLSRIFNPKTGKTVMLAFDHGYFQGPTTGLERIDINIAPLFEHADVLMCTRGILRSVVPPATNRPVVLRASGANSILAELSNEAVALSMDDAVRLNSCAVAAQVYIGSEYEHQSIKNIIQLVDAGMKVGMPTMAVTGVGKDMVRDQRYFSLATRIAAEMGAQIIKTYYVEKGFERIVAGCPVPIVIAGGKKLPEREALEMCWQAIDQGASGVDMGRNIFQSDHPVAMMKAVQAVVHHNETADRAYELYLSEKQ

Which “X-ray crystallography, crystal soak, 2.5 Å” value does the source give for `O=P(O)(O)OC[C@H]1OC(O)[C@H](O)[C@@H]1O` (stereo partly shown) [ribose-5-phosphate] here?
Its value is “The final model included one ribose-5-phosphate per chain”.
